According to article PMC8841437 (Clinical and Translational Science, 2021):

Legend:
[1] = Single ascending dose; format: in vivo, human; details: for increase in bioavailability by food intake: fed vs fasted; for AUC: AUC(0‐T); for AUC / Cmax: n = 6, geometric mean (geometric CV%); for Cmax: fed (high-fat breakfast)
[2] = system: activated partial thromboplastin time (aPTT); experiment: Activated partial thromboplastin time; format: in vivo, human
[3] = system: healthy participants; experiment: Safety and tolerability; format: in vivo, human
[4] = system: prothrombin time; experiment: Prothrombin time, ex vivo pharmacodynamics; format: in vivo, human; details: SAD and MAD panels; data not shown
[5] = Urinary excretion of milvexian; format: in vivo, human
[6] = system: arterial and venous thrombosis; details: preclinical models of arterial and venous thrombosis; cited from earlier work
[7] = Multiple ascending dose; details: for Tmax: median (min-max)
[8] = MAD panel 7, 5 mg q.d. fasted, n = 6
[9] = MAD panel 8, 20 mg q.d. fasted, n = 6
[10] = MAD panel 9, 70 mg q.d. fasted, n = 6
[11] = MAD panel 10, 200 mg q.d. fasted, n = 6
[12] = MAD panel 11, 500 mg q.d. fed, n = 6
[13] = MAD panel 12, 35 mg b.i.d. fasted, n = 6
[14] = MAD panel 13, 200 mg b.i.d. fasted, n = 6
[15] = MAD, all participants treated with milvexian, N = 42
[16] = all SAD and MAD dosing regimens

## C[C@@H]1CCC[C@H](n2cnc(-c3cc(Cl)ccc3-n3cc(Cl)nn3)cc2=O)c2cc(ccn2)-c2c(cnn2C(F)F)NC1=O [milvexian]
[1]; SAD 200-mg panel
  increase in bioavailability by food intake: ~ 1.4 fold
[1]; SAD 500-mg panel
  increase in bioavailability by food intake: ~ 2 fold
[1]; SAD panels 4 and 6, fed vs fasted
  mean T1/2 shortened when administered with food: 1.5 h
[1]; SAD, fasted, 20 to 200 mg
  dose proportionality of Cmax and exposure: generally dose‐proportional
[1]; human, plasma, oral, 4 mg, SAD panel 1, 4 mg, fasted
  AUC: 125 ng·h/mL
[1]; human, plasma, oral, 20 mg, SAD panel 2, 20 mg, fasted
  AUC: 1220 ng·h/mL
[1]; human, plasma, oral, 60 mg, SAD panel 3, 60 mg, fasted
  AUC: 3790 ng·h/mL
[1]; human, plasma, oral, 200 mg, SAD panel 4, 200 mg, fasted
  AUC: 12500 ng·h/mL
[1]; human, plasma, oral, 200 mg, SAD panel 4, 200 mg, fed
  AUC: 17800 ng·h/mL
[1]; human, plasma, oral, 200 mg, SAD panel 4, 200 mg
  Cmax: 1640 ng/mL
[1]; human, plasma, oral, 300 mg, SAD panel 5, 300 mg, fasted
  AUC: 14600 ng·h/mL
[1]; human, plasma, oral, 500 mg, SAD panel 6, 500 mg, fasted
  AUC: 21000 ng·h/mL
[1]; human, plasma, oral, 500 mg, SAD panel 6, 500 mg, fed
  AUC: 44300 ng·h/mL
[1]; human, plasma, oral, 500 mg, SAD panel 6, 500 mg
  Cmax: 3360 ng/mL
[1]; human, plasma, oral, T1/2, range across all SAD panels, SAD, 4-500 mg
  half-life: 8.3 to 13.8 h
[1]; human, plasma, oral, Tmax, summary in discussion, rapid absorption
  Tmax: 2 to 4 h
[2]; fasted SAD panel 4 mg
  maximal mean percent increase from baseline in aPTT: 11.9%
[2]; fasted SAD panel 20 mg
  maximal mean percent increase from baseline in aPTT: 36.7%
[2]; fasted SAD panel 60 mg
  maximal mean percent increase from baseline in aPTT: 85.2%
[2]; fasted SAD panel 200 mg
  maximal mean percent increase from baseline in aPTT: 147.1%
[2]; fasted SAD panel 300 mg
  maximal mean percent increase from baseline in aPTT: 140.8%
[2]; fasted SAD panel 500 mg
  maximal mean percent increase from baseline in aPTT: 188.3%
[3]; MAD 5-mg q.d. group
  epistaxis: one participant
[3]; MAD 5-mg q.d. group, considered treatment-related, mild
  gingival bleeding: one participant
[3]; MAD 70-mg q.d. group, considered treatment-related, mild
  petechia: one participant
[3]; [8]
  Abdominal discomfort (TEAE): 1 (16.7) n (%)
  Abdominal pain (TEAE): 0 n (%)
  Any TEAE: 4 (66.7) n (%)
  Diarrhea (TEAE): 1 (16.7) n (%)
  Dizziness (TEAE): 0 n (%)
  Headache (TEAE): 2 (33.3) n (%)
  Nausea (TEAE): 0 n (%)
  Oropharyngeal pain (TEAE): 0 n (%)
  Pain in extremity (TEAE): 0 n (%)
[3]; MAD panel 7, after one dose of 5 mg
  discontinuation of treatment because of an AE (macular rash): one participant
[3]; [9]
  Abdominal discomfort (TEAE): 0 n (%)
  Abdominal pain (TEAE): 0 n (%)
  Any TEAE: 1 (16.7) n (%)
  Diarrhea (TEAE): 0 n (%)
  Dizziness (TEAE): 0 n (%)
  Headache (TEAE): 1 (16.7) n (%)
  Nausea (TEAE): 0 n (%)
  Oropharyngeal pain (TEAE): 0 n (%)
  Pain in extremity (TEAE): 0 n (%)
[3]; [10]
  Abdominal discomfort (TEAE): 1 (16.7) n (%)
  Abdominal pain (TEAE): 1 (16.7) n (%)
  Any TEAE: 5 (83.3) n (%)
  Diarrhea (TEAE): 3 (50.0) n (%)
  Dizziness (TEAE): 1 (16.7) n (%)
  Headache (TEAE): 2 (33.3) n (%)
  Nausea (TEAE): 1 (16.7) n (%)
  Oropharyngeal pain (TEAE): 0 n (%)
  Pain in extremity (TEAE): 1 (16.7) n (%)
[3]; [11]
  Abdominal discomfort (TEAE): 0 n (%)
  Abdominal pain (TEAE): 1 (16.7) n (%)
  Any TEAE: 4 (66.7) n (%)
  Diarrhea (TEAE): 1 (16.7) n (%)
  Dizziness (TEAE): 0 n (%)
  Headache (TEAE): 1 (16.7) n (%)
  Nausea (TEAE): 2 (33.3) n (%)
  Oropharyngeal pain (TEAE): 1 (16.7) n (%)
  Pain in extremity (TEAE): 1 (16.7) n (%)
[3]; [12]
  Abdominal discomfort (TEAE): 0 n (%)
  Abdominal pain (TEAE): 0 n (%)
  Any TEAE: 3 (50.0) n (%)
  Diarrhea (TEAE): 0 n (%)
  Dizziness (TEAE): 0 n (%)
  Headache (TEAE): 0 n (%)
  Nausea (TEAE): 0 n (%)
  Oropharyngeal pain (TEAE): 0 n (%)
  Pain in extremity (TEAE): 0 n (%)
[3]; [13]
  Abdominal discomfort (TEAE): 0 n (%)
  Abdominal pain (TEAE): 0 n (%)
  Any TEAE: 2 (33.3) n (%)
  Diarrhea (TEAE): 0 n (%)
  Dizziness (TEAE): 1 (16.7) n (%)
  Headache (TEAE): 0 n (%)
  Nausea (TEAE): 0 n (%)
  Oropharyngeal pain (TEAE): 0 n (%)
  Pain in extremity (TEAE): 0 n (%)
[3]; [14]
  Abdominal discomfort (TEAE): 0 n (%)
  Abdominal pain (TEAE): 0 n (%)
  Any TEAE: 2 (33.3) n (%)
  Diarrhea (TEAE): 0 n (%)
  Dizziness (TEAE): 1 (16.7) n (%)
  Headache (TEAE): 0 n (%)
  Nausea (TEAE): 0 n (%)
  Oropharyngeal pain (TEAE): 1 (16.7) n (%)
  Pain in extremity (TEAE): 0 n (%)
[3]; MAD panels, milvexian
  Diarrhea (TEAE): 11.9%
  Headache (TEAE): 14.3%
[3]; MAD panels, participants who received milvexian (21 participants)
  participants reporting TEAEs: 50.0%
[3]; [15]
  Abdominal discomfort (TEAE): 2 (4.8) n (%)
  Abdominal pain (TEAE): 2 (4.8) n (%)
  Any TEAE: 21 (50.0) n (%)
  Diarrhea (TEAE): 5 (11.9) n (%)
  Dizziness (TEAE): 3 (7.1) n (%)
  Headache (TEAE): 6 (14.3) n (%)
  Nausea (TEAE): 3 (7.1) n (%)
  Oropharyngeal pain (TEAE): 2 (4.8) n (%)
  Pain in extremity (TEAE): 2 (4.8) n (%)
[3]; SAD and MAD
  ECG abnormalities: no clinically significant ECG abnormalities
  incidence of laboratory and vital sign abnormalities vs placebo: no relevant differences
[3]; SAD panels, fasted participants who received milvexian (three participants)
  participants reporting TEAEs: 8.3%
[3]; SAD up to 500 mg, MAD up to 200 mg b.i.d. or 500 mg q.d.
  deaths or other SAEs: No deaths or other SAEs occurred
[3]; SAD, 300 mg, fasted
  Headache (TEAE): 2 n
[3]; SAD, 500-mg group, fed (one participant)
  nausea (TEAE) after a high-fat breakfast: 16.7%
[3]; [16]
  clinically significant bleeding events: no clinically significant bleeding events
  severity of TEAEs: mild
[3]; same participant, 35-mg b.i.d. group, within normal limits
  platelet count at next sampling time 2 days later: 1.84e+11 L⁻¹
[4]
  Prothrombin time: not increased at any time
[5]; MAD panel 9, 70 mg q.d., day 1
  mean total amount excreted in urine from 0 to 24 h postdose: 14.8 % of the administered dose
[5]; MAD panel 9, 70 mg q.d., day 14
  mean total amount excreted in urine from 0 to 24 h postdose: 17.3 % of the administered dose
[5]; MAD panel 10, 200 mg q.d., day 1
  mean total amount excreted in urine from 0 to 24 h postdose: 10.4 % of the administered dose
[5]; MAD panel 10, 200 mg q.d., day 14
  mean total amount excreted in urine from 0 to 24 h postdose: 14.1 % of the administered dose
[5]; all panels
  Renal excretion: less than 20%
[6]
  antithrombotic activity: antithrombotic activity while preserving homeostasis
[7]; MAD 5-mg q.d. panel, visual inspection of trough concentrations
  time to steady-state plasma concentration: 1 dosing day
[7]; MAD day 14, 5-500 mg
  dose proportionality of increases in exposure: greater than dose‐proportional
[7]; MAD, once-daily dosing
  time to steady-state plasma concentration: ≤ 3 dosing days
[7]; human, in vivo, 5 mg, AUC(0‐T), MAD panel 7, 5 mg q.d. fasted, day 14, n = 5, geometric mean (geometric CV%)
  AUC: 146 ng·h/mL
[7]; human, in vivo, 5 mg, AUC(TAU), MAD panel 7, 5 mg q.d. fasted, day 14, n = 5, geometric mean (geometric CV%)
  AUC: 146 ng·h/mL
[7]; human, in vivo, 5 mg, Cmax, MAD panel 7, 5 mg q.d. fasted, day 14, n = 5, geometric mean (geometric CV%)
  Cmax at 14 days: 14.8 ng/mL
[7]; human, in vivo, 5 mg, MAD panel 7, 5 mg q.d. fasted, day 14, n = 5
  Tmax: 2.03 h
[7]; human, in vivo, 20 mg, AUC(0‐T), MAD panel 8, 20 mg q.d. fasted, day 14, n = 6, geometric mean (geometric CV%)
  AUC: 1660 ng·h/mL
[7]; human, in vivo, 20 mg, AUC(TAU), MAD panel 8, 20 mg q.d. fasted, day 14, n = 6, geometric mean (geometric CV%)
  AUC: 1370 ng·h/mL
[7]; human, in vivo, 20 mg, Cmax, MAD panel 8, 20 mg q.d. fasted, day 14, n = 6, geometric mean (geometric CV%)
  Cmax at 14 days: 171 ng/mL
[7]; human, in vivo, 20 mg, MAD panel 8, 20 mg q.d. fasted, day 14, n = 6
  Tmax: 2.5 h
[7]; human, in vivo, 70 mg, AUC(TAU), MAD panel 9, 70 mg q.d. fasted, day 14, n = 5, geometric mean (geometric CV%)
  AUC: 4220 ng·h/mL
[7]; human, in vivo, 70 mg, Cmax, MAD panel 9, 70 mg q.d. fasted, day 14, n = 5, geometric mean (geometric CV%)
  Cmax at 14 days: 434 ng/mL
[7]; human, in vivo, 70 mg, MAD panel 9, 70 mg q.d. fasted, day 14, n = 5
  Tmax: 3 h
[7]; human, in vivo, 200 mg, AUC(0‐T), MAD panel 10, 200 mg q.d. fasted, day 14, n = 6, geometric mean (geometric CV%)
  AUC: 18900 ng·h/mL
[7]; human, in vivo, 200 mg, AUC(TAU), MAD panel 10, 200 mg q.d. fasted, day 14, n = 6, geometric mean (geometric CV%)
  AUC: 14600 ng·h/mL
[7]; human, in vivo, 200 mg, Cmax, MAD panel 10, 200 mg q.d. fasted, day 14, n = 6, geometric mean (geometric CV%)
  Cmax at 14 days: 1510 ng/mL
[7]; human, in vivo, 200 mg, MAD panel 10, 200 mg q.d. fasted, day 14, n = 6
  Tmax: 3.5 h
[7]; human, in vivo, 500 mg, AUC(0‐T), MAD panel 11, 500 mg q.d. fed, day 14, n = 6, geometric mean (geometric CV%)
  AUC: 142000 ng·h/mL
[7]; human, in vivo, 500 mg, AUC(TAU), MAD panel 11, 500 mg q.d. fed, day 14, n = 6, geometric mean (geometric CV%)
  AUC: 95100 ng·h/mL
[7]; human, in vivo, 500 mg, Cmax, MAD panel 11, 500 mg q.d. fed, day 14, n = 6, geometric mean (geometric CV%)
  Cmax: 7600 ng/mL
[7]; human, in vivo, 500 mg, MAD panel 11, 500 mg q.d. fed, day 14, n = 6
  Tmax: 4 h
[7]; human, in vivo, mean T1/2, range across MAD panels, MAD
  half-life: 11.4 to 18.1 h
